For 21 compounds, AC50, EC50 and IC50 results are on record in ChEMBL document CHEMBL1201862, “PubChem BioAssay data set” (2004).

Calls of active or inactive are those of the source.

Test [1] addresses Heat shock protein HSP 90-alpha (Homo sapiens, UniProt P07900). The test is classed as functional, organism-based.
The target in test [2] is T1, RNA-binding protein pos-1 (Caenorhabditis elegans, UniProt G5EF15).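 Further: purified POS-1 fused to maltose binding protein made in E. coli; potency of compounds blocking POS-1 binding to fluorescent RNA.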
T1 sequence (G5EF15 whole entry): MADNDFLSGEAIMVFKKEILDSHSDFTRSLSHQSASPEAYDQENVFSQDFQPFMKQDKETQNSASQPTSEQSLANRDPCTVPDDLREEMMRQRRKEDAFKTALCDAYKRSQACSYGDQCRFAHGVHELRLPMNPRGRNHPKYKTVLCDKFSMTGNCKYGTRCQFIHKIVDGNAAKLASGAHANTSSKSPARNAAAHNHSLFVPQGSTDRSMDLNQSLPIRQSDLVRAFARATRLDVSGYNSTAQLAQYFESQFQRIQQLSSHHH
Description: inhibitors of POS-1/mex-3 RNA binding, dose response, biochemical, fluorescence polarization (AID 1964). (In general: Polarisation of emitted light reports the rotation of a fluorescent probe.)

The target in test [3] is T2, Zinc finger protein mex-5 (Caenorhabditis elegans, UniProt Q9XUB2).
T2 sequence (Q9XUB2 whole entry): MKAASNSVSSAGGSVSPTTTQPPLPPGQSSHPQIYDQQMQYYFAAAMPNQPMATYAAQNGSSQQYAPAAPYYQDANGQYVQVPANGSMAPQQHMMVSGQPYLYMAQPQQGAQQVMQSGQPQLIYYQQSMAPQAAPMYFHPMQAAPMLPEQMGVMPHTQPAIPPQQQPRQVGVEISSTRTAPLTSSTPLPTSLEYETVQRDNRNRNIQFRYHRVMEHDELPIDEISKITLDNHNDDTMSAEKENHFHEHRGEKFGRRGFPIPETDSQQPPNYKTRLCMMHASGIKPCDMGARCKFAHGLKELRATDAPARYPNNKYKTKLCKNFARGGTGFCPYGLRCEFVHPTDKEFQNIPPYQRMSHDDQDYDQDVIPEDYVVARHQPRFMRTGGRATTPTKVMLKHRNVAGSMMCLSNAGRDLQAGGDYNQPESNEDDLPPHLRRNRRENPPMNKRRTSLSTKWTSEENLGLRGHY
The test can be described thus: MEX-5/TCR-2 RNA interaction inhibitors, dose response, biochemical, C. elegans, fluorescence polarization (AID 1960).

Test [4] has as its target Alkaline phosphatase, placental type (Homo sapiens, UniProt P05187). Description: PLAP enzyme inhibitors, confirmation, biochemical, luminescence (AID 1512). The class given is functional.
Test [5] deals with T3, Short transient receptor potential channel 4 (Mus musculus, UniProt Q9QUQ5).
T3 sequence (Q9QUQ5 whole entry): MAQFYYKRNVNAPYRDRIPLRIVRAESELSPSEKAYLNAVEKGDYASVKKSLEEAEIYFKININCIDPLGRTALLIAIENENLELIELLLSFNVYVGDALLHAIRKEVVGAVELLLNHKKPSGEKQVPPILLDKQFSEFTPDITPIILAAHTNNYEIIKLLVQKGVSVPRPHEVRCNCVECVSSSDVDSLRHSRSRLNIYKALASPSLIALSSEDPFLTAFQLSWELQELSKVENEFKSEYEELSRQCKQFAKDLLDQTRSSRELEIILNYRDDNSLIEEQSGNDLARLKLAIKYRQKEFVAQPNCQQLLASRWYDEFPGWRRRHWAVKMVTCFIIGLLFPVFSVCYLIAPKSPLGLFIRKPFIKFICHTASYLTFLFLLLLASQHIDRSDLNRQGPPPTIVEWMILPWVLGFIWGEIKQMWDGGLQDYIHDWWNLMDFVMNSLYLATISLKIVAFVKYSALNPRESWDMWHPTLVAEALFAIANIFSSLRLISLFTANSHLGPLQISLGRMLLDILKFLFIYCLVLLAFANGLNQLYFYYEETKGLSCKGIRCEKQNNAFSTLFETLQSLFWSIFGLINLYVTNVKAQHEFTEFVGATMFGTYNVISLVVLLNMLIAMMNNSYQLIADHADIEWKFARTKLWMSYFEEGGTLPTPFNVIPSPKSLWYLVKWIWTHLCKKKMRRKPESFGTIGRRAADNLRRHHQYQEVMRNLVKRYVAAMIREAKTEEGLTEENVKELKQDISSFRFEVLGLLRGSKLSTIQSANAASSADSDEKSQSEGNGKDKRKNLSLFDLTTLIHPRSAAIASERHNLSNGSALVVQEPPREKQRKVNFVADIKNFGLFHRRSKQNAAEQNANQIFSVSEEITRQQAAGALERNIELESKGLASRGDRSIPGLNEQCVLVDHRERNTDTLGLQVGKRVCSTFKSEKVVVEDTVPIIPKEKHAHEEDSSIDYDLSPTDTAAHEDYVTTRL
The test can be described thus: mouse TRPC4 channel inhibitors, dose response, cell-based, HEK293 TRPC4/mu-opioid, Fluo-4 calcium (AID 434942).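 Further: potency of inhibitors blocking the TRPC4 calcium response.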 The class given is functional.

The target in a further test is T4, Leucine aminopeptidase (Plasmodium falciparum 3D7, UniProt Q8IL11).
T4 sequence (Q8IL11 whole entry): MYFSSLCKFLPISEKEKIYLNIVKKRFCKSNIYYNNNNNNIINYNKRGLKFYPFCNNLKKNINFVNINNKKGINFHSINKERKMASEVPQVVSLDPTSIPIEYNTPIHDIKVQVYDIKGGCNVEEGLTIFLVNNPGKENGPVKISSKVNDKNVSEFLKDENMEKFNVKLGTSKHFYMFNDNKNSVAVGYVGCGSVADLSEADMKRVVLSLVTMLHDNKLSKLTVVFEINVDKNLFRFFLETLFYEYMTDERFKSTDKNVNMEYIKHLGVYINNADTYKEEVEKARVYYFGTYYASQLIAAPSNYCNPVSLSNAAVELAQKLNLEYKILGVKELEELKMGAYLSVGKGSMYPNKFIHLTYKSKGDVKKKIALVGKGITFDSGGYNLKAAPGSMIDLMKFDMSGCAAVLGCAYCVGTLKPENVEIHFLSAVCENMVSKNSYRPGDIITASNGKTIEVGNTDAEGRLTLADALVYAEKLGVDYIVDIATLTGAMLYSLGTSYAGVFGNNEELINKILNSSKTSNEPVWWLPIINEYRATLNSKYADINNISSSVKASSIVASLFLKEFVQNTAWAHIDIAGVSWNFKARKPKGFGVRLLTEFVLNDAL
Description: P. falciparum M17LAP inhibitors, primary screen, biochemical, fluorogenic H-Leu-NHMec substrate, 1536-well (AID 1619). The test is classed as functional.

The next test addresses Genome polyprotein (dengue virus type 2, UniProt P29990). Description: Dengue-2 NS5 methyltransferase inhibitors, primary screen, biochemical, confirmation dose response (AID 588689). The class given is functional.
The target of test [6] is T5, High affinity choline transporter 1 (Homo sapiens, UniProt Q9GZV3).
T5 sequence (Q9GZV3 whole entry): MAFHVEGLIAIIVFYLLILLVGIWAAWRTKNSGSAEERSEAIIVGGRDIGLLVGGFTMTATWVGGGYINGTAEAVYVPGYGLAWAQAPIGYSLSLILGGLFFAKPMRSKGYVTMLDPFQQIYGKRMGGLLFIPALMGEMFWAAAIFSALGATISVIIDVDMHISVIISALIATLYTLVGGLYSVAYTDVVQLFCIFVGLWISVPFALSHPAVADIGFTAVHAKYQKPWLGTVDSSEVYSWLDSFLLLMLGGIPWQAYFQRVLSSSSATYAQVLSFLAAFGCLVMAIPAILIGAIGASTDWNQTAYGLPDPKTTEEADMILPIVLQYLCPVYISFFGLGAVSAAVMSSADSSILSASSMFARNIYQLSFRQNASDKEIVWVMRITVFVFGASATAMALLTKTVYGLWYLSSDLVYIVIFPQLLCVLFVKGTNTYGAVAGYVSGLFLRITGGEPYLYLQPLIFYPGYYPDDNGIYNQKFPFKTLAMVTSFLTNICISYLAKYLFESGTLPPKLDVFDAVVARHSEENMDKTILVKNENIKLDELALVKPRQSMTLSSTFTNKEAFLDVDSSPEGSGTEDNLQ
Description: CHT inhibitors, dose response, cell-based, 5-point CRC, membrane potential dye (AID 504840). The test is classed as functional.

Test [7] is described as follows: cells. The class given is functional, cell-based.
The target in the next test is Cytochrome P450 2C9 (Homo sapiens, UniProt P11712).
Chain of Cytochrome P450 2C9 (P11712 whole entry): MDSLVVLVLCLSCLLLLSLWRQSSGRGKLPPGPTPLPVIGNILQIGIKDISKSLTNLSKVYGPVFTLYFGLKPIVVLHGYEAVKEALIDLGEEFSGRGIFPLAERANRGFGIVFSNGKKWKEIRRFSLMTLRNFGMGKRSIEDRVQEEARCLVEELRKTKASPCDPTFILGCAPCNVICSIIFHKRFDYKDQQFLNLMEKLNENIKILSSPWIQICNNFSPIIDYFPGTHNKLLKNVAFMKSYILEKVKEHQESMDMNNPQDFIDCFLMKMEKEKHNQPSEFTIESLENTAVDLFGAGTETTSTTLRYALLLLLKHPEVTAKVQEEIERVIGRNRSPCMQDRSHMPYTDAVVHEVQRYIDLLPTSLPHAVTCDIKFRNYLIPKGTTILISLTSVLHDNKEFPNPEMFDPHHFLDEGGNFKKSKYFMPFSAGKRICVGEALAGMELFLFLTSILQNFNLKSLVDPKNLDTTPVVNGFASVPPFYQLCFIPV
The next test addresses T6, Cytochrome P450 1A2 (Homo sapiens, UniProt P05177).
T6 sequence (P05177 whole entry): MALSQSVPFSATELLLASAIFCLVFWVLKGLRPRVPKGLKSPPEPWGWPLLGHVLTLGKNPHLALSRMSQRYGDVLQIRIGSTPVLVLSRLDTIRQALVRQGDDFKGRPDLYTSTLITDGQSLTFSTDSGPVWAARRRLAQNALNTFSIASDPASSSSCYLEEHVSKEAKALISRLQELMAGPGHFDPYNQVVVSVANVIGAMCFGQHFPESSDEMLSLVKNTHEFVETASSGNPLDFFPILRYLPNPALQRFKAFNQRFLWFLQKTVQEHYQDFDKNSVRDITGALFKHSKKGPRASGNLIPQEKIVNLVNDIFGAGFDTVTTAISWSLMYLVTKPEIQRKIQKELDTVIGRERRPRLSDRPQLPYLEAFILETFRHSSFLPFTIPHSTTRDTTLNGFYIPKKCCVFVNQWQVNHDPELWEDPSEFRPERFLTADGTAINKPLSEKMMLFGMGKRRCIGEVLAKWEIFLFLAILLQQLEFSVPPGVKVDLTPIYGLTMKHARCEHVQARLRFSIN

The nature of test [8]: cells. The test is classed as functional, cell-based. This is another data set of the same source.
The target in another test is Large T antigen (Simian virus 40, UniProt P03070). The class given is functional, Betapolyomavirus macacae.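 Further: Confirmatory-stage PubChem screen for compounds that inhibit SV40 T antigen.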
Chain of Large T antigen (P03070 whole entry): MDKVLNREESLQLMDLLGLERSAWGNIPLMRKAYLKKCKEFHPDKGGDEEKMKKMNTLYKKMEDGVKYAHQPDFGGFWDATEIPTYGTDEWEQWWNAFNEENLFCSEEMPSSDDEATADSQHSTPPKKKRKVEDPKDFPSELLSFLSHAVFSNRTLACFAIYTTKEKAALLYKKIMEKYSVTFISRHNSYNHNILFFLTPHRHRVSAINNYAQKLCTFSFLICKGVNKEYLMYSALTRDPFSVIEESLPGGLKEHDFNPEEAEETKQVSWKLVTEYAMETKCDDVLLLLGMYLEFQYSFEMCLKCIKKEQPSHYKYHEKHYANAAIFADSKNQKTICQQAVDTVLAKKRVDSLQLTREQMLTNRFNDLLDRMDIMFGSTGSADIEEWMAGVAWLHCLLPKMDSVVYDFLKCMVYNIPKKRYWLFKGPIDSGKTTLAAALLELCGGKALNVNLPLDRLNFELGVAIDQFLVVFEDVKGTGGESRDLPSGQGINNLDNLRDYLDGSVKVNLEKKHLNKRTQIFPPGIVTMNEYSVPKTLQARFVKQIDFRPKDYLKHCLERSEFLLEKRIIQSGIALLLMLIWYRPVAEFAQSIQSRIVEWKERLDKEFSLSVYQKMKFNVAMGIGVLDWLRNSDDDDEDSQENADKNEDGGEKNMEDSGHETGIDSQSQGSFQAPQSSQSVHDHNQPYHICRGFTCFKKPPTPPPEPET
A short description of test [9]: Luminescence Cell-Based Dose Retest to Confirm Inhibitors of Cancer Stem Cells. [Related pubchem assays (depositor defined):AID2717, AID2721]. The conditions noted are these: Homo sapiens. The class given is functional.
A short description of test [10]: inhibitors of firefly luciferase expression or activity, dose response, H4 neuroglioma cells, luminescence (AID 1990). The test is classed as functional, cell-based.
A short description of test [11]: Luminescence Cell-Based Dose Response HTS to Identify Inhibitors of 5'UTR Stem-Loop Driven Prion Protein mRNA Translation in H4 Neuroglioblastoma Cells. [Related pubchem assays: 1827 (Project Summary), 1813 (Primary HTS)]. The class given is functional.
The nature of test [12]: inhibitors of SNCA 5'UTR-driven reporter translation, confirmation, H4 neuroglioma cells, luminescence (AID 1988). The class given is functional, cell-based.

Chain of Genome polyprotein (P29990 2492-3391 limits assumed): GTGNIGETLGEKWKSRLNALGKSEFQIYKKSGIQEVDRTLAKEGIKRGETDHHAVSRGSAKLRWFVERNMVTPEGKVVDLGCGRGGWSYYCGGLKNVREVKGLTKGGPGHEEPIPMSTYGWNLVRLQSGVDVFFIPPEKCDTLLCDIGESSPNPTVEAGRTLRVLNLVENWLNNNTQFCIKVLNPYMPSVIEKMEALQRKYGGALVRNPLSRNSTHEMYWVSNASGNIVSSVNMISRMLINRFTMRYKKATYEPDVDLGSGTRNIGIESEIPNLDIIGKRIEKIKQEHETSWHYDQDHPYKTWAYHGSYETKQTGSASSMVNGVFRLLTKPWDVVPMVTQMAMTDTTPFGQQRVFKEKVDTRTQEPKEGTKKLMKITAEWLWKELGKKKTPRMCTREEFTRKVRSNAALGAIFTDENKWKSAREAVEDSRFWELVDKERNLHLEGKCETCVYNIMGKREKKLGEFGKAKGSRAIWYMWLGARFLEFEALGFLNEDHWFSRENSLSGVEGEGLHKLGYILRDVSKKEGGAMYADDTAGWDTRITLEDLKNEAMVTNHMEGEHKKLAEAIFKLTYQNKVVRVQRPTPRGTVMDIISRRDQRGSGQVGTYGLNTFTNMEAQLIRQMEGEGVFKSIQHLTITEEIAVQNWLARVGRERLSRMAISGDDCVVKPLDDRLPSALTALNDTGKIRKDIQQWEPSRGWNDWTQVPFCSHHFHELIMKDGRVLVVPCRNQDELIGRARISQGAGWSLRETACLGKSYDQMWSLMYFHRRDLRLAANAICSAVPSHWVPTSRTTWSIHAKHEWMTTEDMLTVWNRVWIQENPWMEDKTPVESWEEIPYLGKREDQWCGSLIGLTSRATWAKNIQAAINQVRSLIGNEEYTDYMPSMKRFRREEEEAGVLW
Chain of Alkaline phosphatase, placental type (P05187 whole entry): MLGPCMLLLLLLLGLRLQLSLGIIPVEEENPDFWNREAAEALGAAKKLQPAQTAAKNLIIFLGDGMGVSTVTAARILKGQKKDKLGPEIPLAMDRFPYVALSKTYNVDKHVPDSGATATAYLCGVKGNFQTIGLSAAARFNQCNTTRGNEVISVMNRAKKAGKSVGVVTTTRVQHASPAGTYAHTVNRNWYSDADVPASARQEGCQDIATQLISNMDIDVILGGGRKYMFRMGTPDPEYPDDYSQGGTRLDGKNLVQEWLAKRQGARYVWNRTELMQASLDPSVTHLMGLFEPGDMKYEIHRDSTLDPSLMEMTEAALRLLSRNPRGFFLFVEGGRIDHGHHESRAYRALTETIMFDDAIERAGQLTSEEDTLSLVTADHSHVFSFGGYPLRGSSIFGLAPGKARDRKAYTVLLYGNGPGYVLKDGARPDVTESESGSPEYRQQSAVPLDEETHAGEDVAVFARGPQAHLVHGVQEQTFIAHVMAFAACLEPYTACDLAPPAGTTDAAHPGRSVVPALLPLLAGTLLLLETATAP

Take `O=C(/C=C/c1cccc([N+](=O)[O-])c1)c1ccco1`: the AC50 (as a rule, the concentration giving half of the maximal activity seen) in test [1] is 4 µM (active).

In the case of `CCN(CC)CCCNC(=O)CCC(=O)NNc1nc2ccccc2c2nc(C)nn12`, the values for the EC50 in [2] and in test [3] were 160 µM (active) and 0.93 µM (active), respectively. Further, in [4], the IC50 (as a rule, the concentration at which inhibition is half-maximal) was > 100 µM (inactive).

`c1ccc(COC(CN2CCCCCC2)CN2CCCCCC2)cc1`: the EC50 (as a rule, the concentration needed to bring the measured effect to its halfway point) in test [5] was 6.68 µM (active).

In the case of `Cc1ccc(Cn2ccc(NC(=O)C3C4CCC(C4)C3C(=O)O)n2)cc1` (centres undefined), on Leucine aminopeptidase, the half-maximal inhibitory concentration (IC50) is 10.2 µM (active).

As to `CCCc1cc(=O)[nH]c(-n2nc3c(c2O)CCCC3)n1`, the IC50 in test [4] is > 100 µM (inactive).

For the compound `Cc1ccc(OCCOc2cccc(C=C3C(=O)NC(=O)NC3=O)c2)c(C)c1`, the IC50 on Genome polyprotein was 35.5 µM (active).

With `Cc1cccc(-n2cc(CN3CCN(Cc4nccn4C)CC3)c(-c3cccc(F)c3)n2)c1`, in test [6], the IC50 was 13.5 µM (active).

With `C#CCOc1ccc(/C=C2/C(=O)ON=C2C)cc1OCC`, the half-inhibitory concentration (IC50) at Genome polyprotein was > 100 µM (active).

Take `COc1cc(C(=O)Oc2ccccc2/C=N/NC(=O)c2ccc(C)cc2)cc(OC)c1OC`: the EC50 in the test “cells [7]” and in the test “cells [8]” was > 350 µM (not active) in each case. Besides, the AC50 on Cytochrome P450 2C9 was 0.316 µM (inconclusive); on Cytochrome P450 1A2, 2.24 µM (inconclusive).

Take `CCOc1cc(N2CCOCC2)c(OCC)cc1NC(C)C(=O)N1CCC(C)CC1` (centres undefined): the EC50 in the test “cells [7]” and in “cells [8]” was > 350 µM (not active) each time. Also, the IC50 at Large T antigen was 17.1 µM (active).

With `O=C(NCCN1CCCC1)c1ccc2c(c1)N(Cc1cccc(Cl)c1)C(=O)c1ccccc1S2(=O)=O`, in test [6], the IC50 is 11.5 µM (active). Further, in [9], the AC50 is > 195 µM (inactive).

As for `COc1ccc2c(c1)OC[C@H]1[C@H]2N2C(=O)c3cc(C)ccc3NC(=O)[C@@]2(C)[C@H]1c1ccccc1`, in test [1], the AC50 was 1.86 µM (active).

Take `CC(NCCC(Cc1ccccc1)c1ccco1)c1ccccc1` (centres undefined): the EC50 in test [5] is 1.68 µM (active).

As for `Cc1ccc(C(=O)Nc2nc(=O)n(C(=O)C3CC3)s2)cc1`, the half-maximal inhibitory concentration (IC50) at Leucine aminopeptidase is 19.3 µM (active).

For the compound `Cc1c(CCOC(=O)c2ccc([N+](=O)[O-])cc2)sc[n+]1CC(=O)c1ccccc1`, in [5], the EC50 was 5.96 µM (active).

For the compound `O=C(NC1(C(F)(F)F)Oc2cc(Cl)c(Cl)cc2O1)N1CCC2(CC1)OCCO2`, the IC50 in [4] was > 100 µM (inactive).

For `CCOC(=O)CCP(=O)(O)C(O)c1ccc(OC)cc1` (centres undefined), the half-maximal inhibitory concentration (IC50) at Leucine aminopeptidase is 8.59 µM (active).

For the compound `CCCSc1nc(O)c(C(c2ccc(OC)c(O)c2)c2c(O)nc(SCCC)n(C)c2=O)c(=O)n1C`, the IC50 at Large T antigen is > 100 µM (active); on Genome polyprotein, 42.1 µM (active).

As to `OCC1(Cc2ccccc2)CCN(Cc2ccc(C(F)(F)F)cc2)CC1`, the EC50 in test [5] was 2.11 µM (active).

On to `COc1ccccc1N1CCc2c(C)nc3c(OC)cccc3c21`, for which, in test [5], the EC50 is 4.73 µM (active).

As for `CCc1cc(C(=O)N/N=C/c2ccc(O)cc2O)c2ccccc2n1`, the EC50 was > 350 µM (not active) in the test “cells [7]”; 16.7 µM (active) in [10]; 13.3 µM (active) in test [11]; 7.63 µM (active) in test [12]; 9.29 µM (active) in the test “cells [8]”.
